Each structure is given as a SMILES string. ± gives the standard deviation of the averaged measurements.

For experiment [1], the system named is Danio rerio embryo/larva. Kind of experiment: BMC edema; higher = less potent. Conditions: exposure: 6-8 hpf to 5 dpf, scored at 6 dpf. The method, then:
(§1)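 Zebrafish embryos (with chorion) were exposed from 6-8 hpf to each PFAS (8-point half-log series, top concentration up to 100 uM, 0.4% DMSO, sealed plates, 26 C; n = 6 embryos per concentration), rinsed at 5 dpf and scored at 6 dpf by two blinded observers for mortality, hatching and malformations. Endpoint scores are the % of living larvae affected (dead larvae excluded; […]). Curves were fitted with tcpl (cutoff 16%), and the BMC is the concentration at a benchmark response of 21.6%.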

Experiment [2] concerns Danio rerio embryo/larva. Kind of experiment: BMC swim bladder non-inflation; higher = less potent. Conditions: max tested concentration (log10 uM): 1; exposure: 6-8 hpf to 5 dpf, scored at 6 dpf. The protocol: as §1
The test system of experiment [3] is Danio rerio embryo/larva. The experiment is described as follows: BMC mortality; max tested concentration (log10 uM): 2; higher = less potent. Conditions: exposure: 6-8 hpf to 5 dpf, scored at 6 dpf. The method, then:
as §1

For experiment [4], the system named is Danio rerio embryo/larva. Kind of experiment: BMC any abnormality; max tested concentration (log10 uM): 2; higher = less potent. Particulars: exposure: 6-8 hpf to 5 dpf, scored at 6 dpf. The protocol: as §1
Experiment [5] deals with Danio rerio embryo/larva. Kind of experiment: max % larvae unhatched across tested concentrations; max tested concentration (log10 uM): 2; higher = more toxic. Conditions: exposure: 6-8 hpf to 5 dpf, scored at 6 dpf.
Experiment [6] has as its system Danio rerio embryo/larva. Kind of experiment: max % larvae dead across tested concentrations; max tested concentration (log10 uM): 2; higher = more toxic; extreme values may be limits of the assay. Conditions: exposure: 6-8 hpf to 5 dpf, scored at 6 dpf.
Experiment [7] concerns Danio rerio embryo/larva. Kind of experiment: max % larvae with any abnormality across tested concentrations; max tested concentration (log10 uM): 2; higher = more toxic; extreme values may be limits of the assay. Particulars: exposure: 6-8 hpf to 5 dpf, scored at 6 dpf.
Experiment [8] concerns Danio rerio embryo/larva. Kind of experiment: BMC general abnormality; higher = less potent. Particulars: exposure: 6-8 hpf to 5 dpf, scored at 6 dpf. The protocol: as §1
Experiment [9] concerns Danio rerio embryo/larva. Kind of experiment: max % larvae with pigmentation defects across tested concentrations; higher = more toxic. Particulars: exposure: 6-8 hpf to 5 dpf, scored at 6 dpf.
For experiment [10], the system named is Danio rerio embryo/larva. Kind of experiment: max % larvae with edema across tested concentrations; higher = more toxic; extreme values may be limits of the assay. Conditions: exposure: 6-8 hpf to 5 dpf, scored at 6 dpf.
Experiment [11] relates to Danio rerio embryo/larva. Kind of experiment: max % larvae with tail defects across tested concentrations; higher = more toxic; extreme values may be limits of the assay. Conditions: exposure: 6-8 hpf to 5 dpf, scored at 6 dpf.
The subject of experiment [12] is Danio rerio embryo/larva. The experiment is described as follows: max % larvae with blood pooling across tested concentrations; higher = more toxic; extreme values may be limits of the assay. Particulars: exposure: 6-8 hpf to 5 dpf, scored at 6 dpf.
The test system of experiment [13] is Danio rerio embryo/larva. Kind of experiment: max % larvae generally abnormal across tested concentrations; higher = more toxic; extreme values may be limits of the assay. Particulars: exposure: 6-8 hpf to 5 dpf, scored at 6 dpf.
Experiment [14] relates to Danio rerio embryo/larva. Kind of experiment: max % larvae with spinal defects across tested concentrations; higher = more toxic; extreme values may be limits of the assay. Particulars: exposure: 6-8 hpf to 5 dpf, scored at 6 dpf.
Experiment [15] has as its system Danio rerio embryo/larva. Kind of experiment: max % larvae with abnormal position across tested concentrations; higher = more toxic; extreme values may be limits of the assay. Particulars: exposure: 6-8 hpf to 5 dpf, scored at 6 dpf.
In experiment [16] the test system is Danio rerio embryo/larva. The experiment is described as follows: max % larvae with craniofacial defects across tested concentrations; higher = more toxic; extreme values may be limits of the assay. Conditions: exposure: 6-8 hpf to 5 dpf, scored at 6 dpf.
The subject of experiment [17] is Danio rerio embryo/larva. Kind of experiment: max % larvae with uninflated swim bladder across tested concentrations; higher = more toxic; extreme values may be limits of the assay. Particulars: exposure: 6-8 hpf to 5 dpf, scored at 6 dpf.

In the case of `C=CC(=O)OCC(F)(F)C(F)(F)C(F)(F)C(F)(F)COC(=O)C=C` [1H,1H,6H,6H-Perfluorohexane-1,6-diol diacrylate], the BMC edema in the experiment with Danio rerio embryo/larva [1] (max tested concentration (log10 uM): 1) worked out at 8.94 µM. Further, in the experiment on Danio rerio embryo/larva [2], the “BMC swim bladder non-inflation” value was 2.81 µM. Besides, the BMC mortality in the experiment with Danio rerio embryo/larva [3] stood at 8.28 µM. The BMC any abnormality with Danio rerio embryo/larva [4] was 1.52 µM. Further, in the experiment with Danio rerio embryo/larva [5], the “max % larvae unhatched across tested concentrations” value stood at 0%. In the experiment with Danio rerio embryo/larva [6], the “max % larvae dead across tested concentrations” value was determined as 100%. For the same compound, the max % larvae in the experiment on Danio rerio embryo/larva [7] turned out to be 100%.
With `OCC(F)(F)C(F)(F)C(F)(F)C(F)(F)C(F)(F)C(F)(F)CO` [1H,1H,8H,8H-Perfluorooctane-1,8-diol] (max tested concentration (log10 uM): 2), in the experiment on Danio rerio embryo/larva [8], the BMC general abnormality worked out at 50.1 µM. Also, the max % larvae amounted to 0% with Danio rerio embryo/larva [9]; 50% in the experiment with Danio rerio embryo/larva [10]; 2.08% in the experiment on Danio rerio embryo/larva [11]; 0% in the experiment with Danio rerio embryo/larva [12]; 8.33% with Danio rerio embryo/larva [14]; 8.33% in the experiment on Danio rerio embryo/larva [15]. Moreover, the results for the max % larvae in the experiment on Danio rerio embryo/larva [16] and in the experiment on Danio rerio embryo/larva [17] were 25% and 87.5%, respectively. In addition, in the experiment on Danio rerio embryo/larva [13], the “max % larvae generally abnormal across tested concentrations” value was 52.1%.
As to `O=C(Cl)C(F)(F)C(F)(F)C(F)(F)C(F)(F)C(F)(F)C(F)(F)C(F)(F)C(F)(F)F` [Perfluorononanoyl chloride] (max tested concentration (log10 uM): 1.47712), in the experiment with Danio rerio embryo/larva [8], the BMC general abnormality was 13.1 µM. The max % larvae is 0% in the experiment on Danio rerio embryo/larva [9]; 16.7% in the experiment on Danio rerio embryo/larva [10]; 0% in the experiment on Danio rerio embryo/larva [11]; 16.7% in the experiment on Danio rerio embryo/larva [12]; 0% in the experiment with Danio rerio embryo/larva [14]; 4.17% in the experiment with Danio rerio embryo/larva [15]. Further, the max % larvae is 0% in the experiment with Danio rerio embryo/larva [16] and 50% with Danio rerio embryo/larva [17]. In addition, in the experiment on Danio rerio embryo/larva [13], the “max % larvae generally abnormal across tested concentrations” value is 29.2%.
With `N=C(N)C(F)(F)C(F)(F)C(F)(F)C(F)(F)C(F)(F)C(F)(F)C(F)(F)F` [Perfluorooctanamidine], in the experiment with Danio rerio embryo/larva [3], the BMC mortality is 19.5 µM. The BMC any abnormality in the experiment with Danio rerio embryo/larva [4] amounted to 19.5 µM. For the same compound, the “max % larvae unhatched across tested concentrations” value in the experiment with Danio rerio embryo/larva [5] was 0%. The “max % larvae dead across tested concentrations” value with Danio rerio embryo/larva [6] came out at 100%. This compound also registered a max % larvae in the experiment with Danio rerio embryo/larva [7] of 100%.
In turn, `O=C(O)C(F)(F)C(F)(F)C(F)(F)C(F)(F)C(F)(F)C(F)(F)C(F)(F)C(F)(F)C(F)(F)C(F)F` [11-H-Perfluoroundecanoic acid] gave a BMC edema in the experiment with Danio rerio embryo/larva [1] (max tested concentration (log10 uM): 1.47712) of 12.6 µM. The compound further displayed a BMC mortality in the experiment with Danio rerio embryo/larva [3] of 11.2 µM. This compound also showed a BMC any abnormality in the experiment on Danio rerio embryo/larva [4] of 12.9 µM. Further, in the experiment with Danio rerio embryo/larva [5], the “max % larvae unhatched across tested concentrations” value stood at 0%. Moreover, the “max % larvae dead across tested concentrations” value in the experiment on Danio rerio embryo/larva [6] is 100%. In the experiment on Danio rerio embryo/larva [7], the max % larvae came out at 100%.
For the compound `FC(F)(I)C(F)(F)C(F)(F)C(F)(F)C(F)(F)C(F)(F)I` [1,6-Diiodoperfluorohexane] (max tested concentration (log10 uM): 2), the BMC general abnormality with Danio rerio embryo/larva [8] worked out at 4.24 ± 2.6 µM. In addition, the max % larvae in the experiment with Danio rerio embryo/larva [9] was determined as 10 ± 14%; in the experiment on Danio rerio embryo/larva [10], 67.5 ± 3.5%; in the experiment with Danio rerio embryo/larva [11] it was 7.5 ± 11%; in the experiment with Danio rerio embryo/larva [12] it was 56.7 ± 33%; with Danio rerio embryo/larva [14], 33.3 ± 18%; in the experiment on Danio rerio embryo/larva [15], 54.6 ± 0.59%. Besides, the max % larvae in the experiment on Danio rerio embryo/larva [16] was determined as 90%; in the experiment on Danio rerio embryo/larva [17] it was 100%. Besides, in the experiment with Danio rerio embryo/larva [13], the “max % larvae generally abnormal across tested concentrations” value was determined as 95 ± 7.1%.
In turn, `C[N+](C)(C)CCCNS(=O)(=O)C(F)(F)C(F)(F)C(F)(F)C(F)(F)C(F)(F)C(F)(F)C(F)(F)C(F)(F)F` registered a BMC mortality with Danio rerio embryo/larva [3] of 19.8 µM. For the same compound, the BMC any abnormality in the experiment with Danio rerio embryo/larva [4] came out at 22.3 µM. The “max % larvae unhatched across tested concentrations” value in the experiment on Danio rerio embryo/larva [5] was 0%. Further, in the experiment on Danio rerio embryo/larva [6], the “max % larvae dead across tested concentrations” value came to 100%. Moreover, the max % larvae in the experiment on Danio rerio embryo/larva [7] was 100%.
